Laboratory results published in PMC5306082, “Physiologically based kinetic modeling of the bioactivation of myristicin” (Archives of Toxicology, 2016).

Experiments:
[1] = Oxidation of 1′-hydroxymyristicin to 1′-oxomyristicin, rat liver microsomes; type: in vitro ADME; conditions: rat vs human
Description: The kinetic constants for the enzymatic conversion of 1′-hydroxymyristicin to 1′-oxomyristicin were determined using incubation mixtures containing (final concentrations) 3 mM NAD^+, 2 mM GSH, and 1 mg/ml rat or human liver microsomes in 0.2 M Tris–HCl (pH 7.4). GSH was added to the incubation mixtures to trap the reactive 1′-oxo metabolite formed after oxidation of 1′-hydroxymyristicin. The level of GSH in the incubations was optimized in a previous study to obtain maximum scavenging of 1′-oxoestragole (Punt et al. [2009]). To this end, incubations were performed in the presence of increasing concentrations of GSH, ranging from 2 to 10 mM. […] Kinetic constants for this reaction in rat and human liver were derived by performing incubations with NAD^+ as a cofactor, given that in rat and human liver, NAD^+ is mainly present in an oxidized form with levels of NAD^+ being much higher than those of NADH. In a previous study, it was shown that the highest level of 1′-hydroxy alkenylbenzene oxidation occurs in incubations with microsomes in the presence of NAD^+ as cofactor. […] The enzyme responsible for the oxidation may be 17β-hydroxysteroid dehydrogenase type 2 (17β-HSD2) (Punt et al. [2010]). Prior to the addition of 1′-hydroxymyristicin at final concentrations ranging between 10 and 4000 μM to the incubation mixture from 100 times concentrated stock solutions in DMSO, samples were pre-incubated for 1 min at 37 °C. Reactions were terminated after 10 min of incubation at 37 °C by adding 25 μl (0.25 times the incubation volume) of ice-cold ACN. The formation of the GSH conjugate of 1′-oxomyristicin (GS-1′-oxomyristicin) was linear with time and microsomal protein concentration under the experimental conditions used. Blank incubations were performed without the cofactor NAD^+. Incubations were performed in triplicate. All samples were centrifuged for 5 min at 13,000×g, and the supernatant was stored at −20 °C until UPLC analysis.
Quantification of GS-1′-oxomyristicin was based on a calibration curve of the GSH adduct of the synthesized 1′-oxymyristicin made as previously described (van den Berg et al. [2012]; Punt et al. [2009]; Martati et al. [2011]; Al-Subeihi et al. [2011]). In short, a 60 μM concentration of the synthetic standard of 1′-oxomyristicin, dissolved in ACN, was incubated with different concentrations of GSH (i.e., 0–20 μM) in 0.2 M Tris–HCl (pH 7.4) for 6 h at 37 °C, resulting in full conversion of the GSH to GS-1′-oxymyristicin. Quantification was done by comparing the peak areas of the formed GS-1′-oxo metabolite in the incubation mixtures with peak areas of the GS-1′-oxymyristicin calibration curve thus obtained at a wavelength of 212 nm. The gradient for analysis of the metabolite consisted of a mixture of ACN and ultrapure water containing 0.1 % (v/v) TFA. The flow rate was 0.6 ml/min, The gradient started with 10 % ACN, increased to 30 % ACN over 2.5 min, after which ACN was increased to 80 % over 0.5 min, kept at 80 % for 0.5 min, followed by a decrease to 10 % over 0.5 min, and finally kept at 10 % for 0.5 min.

[2] = Sulfonation of 1′-hydroxymyristicin, male rat liver S9; type: in vitro ADME; conditions: S9 protein yield 143 mg/g liver
Description: The formation of 1′-sulfoxymyristicin was determined using incubations containing male rat liver Sprague–Dawley or pooled gender human liver S9 proteins, PAPS as a cofactor, and GSH, which acts as a scavenger of the reactive carbocation formed due to the unstable nature of the 1′-sulfoxy metabolite in an aqueous environment (van den Berg et al. [2012]; Martati et al. [2011]; Al-Subeihi et al. [2011]). Incubation mixtures containing (final concentrations) 10 mM of GSH, 0.2 mM of PAPS, and 3 mg/ml of S9 proteins in 0.1 M potassium phosphate (pH 8.2) were pre-incubated for 1 min at 37 °C. After the pre-incubation, 1′-hydroxymyristicin dissolved in DMSO was added in final concentrations ranging between 10 and 6000 μM while keeping the final content of DMSO at 1 % (v/v). The reaction was terminated after 360 min of incubation by adding 25 μl (0.25 times the incubation volume) of ice-cold ACN. The formation of the GSH conjugate of 1′-sulfoxymyristicin was linear with time and S9 protein concentrations under the experimental conditions used. Blank incubations were performed in the absence of PAPS. Incubations were performed in triplicate. All samples were centrifuged for 5 min at 16,000×g, and the supernatant was stored at −20 °C until ultra-performance liquid chromatography (UPLC) analysis.
Quantification of 1′-sulfoxymyristicin was done using UPLC analysis as described for the estimation of 1′-sulfoxysafrole (Martati et al. [2011]). […] The gradient for analysis of the metabolite consisted of a mixture of ACN and ultrapure water containing 0.1 % (v/v) TFA. The flow rate was 0.6 ml/min, starting at 0 % ACN and increasing the percentage of ACN to 20 % over 0.2 min, followed by an increase to 30 % ACN over 4.3 min, then increasing to 100 % over 0.3 min, and keeping it at 100 % for 0.2 min, and finally decreasing to 0 % over 0.2 min and keeping it at 0 % for 0.8 min. Separation and purification of the GSH adduct of 1′-sulfoxymyristicin was performed by collecting the peak of the metabolite from the UPLC column. […]

## C=CC(O)c1cc(OC)c2c(c1)OCO2 (centres unmarked) [1′-Hydroxymyristicin, 1′-hydroxymyristicin]
[1]
  oxidation, fold lower affinity in rat than in human: 1.8 fold
[2]
  k Scaled: 0.15 ml/hr/g tissue
